This is an account of results in patent publication US8399214B2 (Evonik Degussa GmbH, priority 2005, dated 2013).

Several values for one entry are separate records, joined by “and”; a condition that tells them apart may be missing. Equal entries are not always repeated. Where two headings read alike, the source gives them in different places.

The subject of data set [1] is microorganisms. To be noted: gaseous state; cited from earlier work.
The subject of data set [2] is C. glutamicum M2014. Put plainly: Test tube growth in methionine-free medium with mineral oil as DMDS delivery system. To be noted: MF + Met 100 mg/l, no oil, 24 hours at 30° C. The text has this:
(§1) Other possible delivery systems include synthetic oils, organic solvents, chloro-carbons, fluoro-carbons, or chloro-fluoro-carbons.

Data set [3] has as its system C. glutamicum OM101 (ΔmetF, ΔmetB). To be noted: Met 100 mg/ml, XAD4, 60 hours at 30° C.
Protocol: (§5) A test tube experiment was performed with M2014 derivatives that contain different combinations of deletions of metY, metB, and metF. […] The inoculum was approximately 5×10^3 cells per tube. Cells were grown at 30° C. in a platform shaker for 60 hours, and cell densities were measured at OD600.
Data set [4] concerns C. glutamicum OM246C (ΔmetH, ΔmetE). Particulars: OM246C, 24 hours at 30° C.
Excerpt: as §1

The test system of data set [5] is C. glutamicum OM158 (ΔmetF, ΔmetY). Particulars: Met 100 mg/ml, XAD4, 60 hours at 30° C.
Protocol: as §5
The subject of data set [6] is C. glutamicum M2014. Put plainly: Test tube growth in methionine-free medium with Amberlite XAD4 as DMDS delivery system. To be noted: M2014, XAD4. Here is the method: (§2) To this end, test tube experiments using 5 ml of medium were performed on OM63 and M2014.
(§3) To each test tube 100 μl of a sterile suspension of XAD4 in water (50% v/v) was added.

Data set [7] relates to C. glutamicum OM246C (ΔmetH, ΔmetE). The data set is classed as cell-based. Particulars: 24 hours at 30° C.
Excerpt: as §1

Data set [8] concerns C. glutamicum OM63 (ΔmetF). The data set is classed as cell-based. Particulars: MF + Met 40 mg/l, 36 hours at 30° C. The text has this:
(§4) M2014 was transformed with plasmid pOM86 (FIG. 9) (SEQ ID NO:8) to yield a “Campbell in” strain. The “Campbell in” strain was then “Cambelled out” to yield a “Campbell out” strain named OM63.

Data set [9] relates to C. glutamicum OM246C (ΔmetE, ΔmetH). The data set is classed as cell-based. To be noted: met 100 mg/l, XAD4, 24 hours at 30° C. How it is done: as §3
In data set [10] the test system is C. glutamicum OM101C (ΔmetF, ΔmetB). The data set is classed as cell-based. To be noted: met 100 mg/l, XAD4, 24 hours at 30° C. How it is done: as §3
Data set [11] has as its system C. glutamicum M2014. Put plainly: Test tube growth in methionine-free medium with canola oil as DMDS delivery system. The format is cell-based. To be noted: 24 hours at 30° C.
Excerpt: as §1

The subject of data set [12] is C. glutamicum OM174 (ΔmetF, ΔmetB, ΔmetY). Particulars: Met 100 mg/ml, XAD4, 60 hours at 30° C.
Protocol: as §5
The subject of data set [13] is C. glutamicum M2014 (parent). Put plainly: Test tube growth in methionine-free medium, DMDS added directly. To be noted: M2014; MF + Met 40 mg/l; 36 hours at 30° C.
Excerpt: as §4

Data set [14] relates to C. glutamicum OM63 (ΔmetF). How it is done: as §2, §3

Turning to `C[Se][Se]C` [DMDSe, dimethyldiselenide], in data set [1], the toxicity to microorganisms result was “toxic to microorganisms in a gaseous state”.

Turning to `CSCC[C@H](N)C(=O)O` [Met, methionine, reference compound], the “Optical densities at 600 nm” value was 4.6 and 4.8 in data set [2]; 4.9 and 4.7 in data set [4] (MF + Met 100 mg/l, no oil); 1.5 and 1.8 in [4] (MF + Met + Mineral Oil); 7.1 in [6] (Met 40 mg/l, 42 hours at 30° C.); 4.4 and 4.7 in data set [6] (met 100 mg/l, 24 hours at 30° C.); 4.9 and 4.7 in data set [7] (MF + Met 100 mg/l, no oil). Further, the “Optical densities at 600 nm” value in data set [7] (MF + Met + Canola Oil) is 3.7 and 3.0; in data set [8] it was 5.2; in [9], 3.9 and 4.3; in data set [10] it was 1.9 and 2.1; in data set [11] (MF + Met 100 mg/l, no oil), 4.6 and 4.8; in [11] (MF + Met + Canola Oil) it was 3.8 and 3.5. Moreover, the “Optical densities at 600 nm” value was 5.8 in data set [13]; 4.4 in data set [14] (Met 40 mg/l, XAD4, 42 hours at 30° C.); 2.4 and 3.0 in data set [14] (met 100 mg/l, XAD4, 24 hours at 30° C.). Moreover, the OD600 was 1.8 in data set [3]; 3.2 and 2.7 in [5]; 2.2 and 2.3 in [6] (Met 100 mg/ml, 60 hours at 30° C.); 1.5 and 1.2 in data set [12]; 1.6 and 1.9 in data set [14] (Met 100 mg/ml, XAD4, 60 hours at 30° C.).
